The structures appear in SMILES notation.

In assay [1] the target is Mitogen-activated protein kinase 10 (Homo sapiens, UniProt P53779). Nature of the assay: Inhibition of JNK3.
In assay [2] the target is T1, Mitogen-activated protein kinase 9 (Homo sapiens, UniProt P45984). Nature of the assay: Inhibition of JNK2 at 10 uM.
Target sequence in this assay (P45984 whole entry, looked up): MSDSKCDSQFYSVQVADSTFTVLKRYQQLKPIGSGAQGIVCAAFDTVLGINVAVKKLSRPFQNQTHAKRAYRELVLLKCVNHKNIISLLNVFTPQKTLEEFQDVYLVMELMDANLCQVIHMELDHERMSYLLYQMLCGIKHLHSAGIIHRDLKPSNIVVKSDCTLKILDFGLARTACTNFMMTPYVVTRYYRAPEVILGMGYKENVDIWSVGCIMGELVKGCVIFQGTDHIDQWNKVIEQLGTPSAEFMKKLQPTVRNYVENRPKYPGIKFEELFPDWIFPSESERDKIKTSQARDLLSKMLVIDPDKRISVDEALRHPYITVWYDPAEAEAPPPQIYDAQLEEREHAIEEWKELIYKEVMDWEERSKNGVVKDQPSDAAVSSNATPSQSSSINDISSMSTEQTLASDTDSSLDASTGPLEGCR
The target in assay [3] is T2, Mitogen-activated protein kinase 8 (Homo sapiens, UniProt P45983). Put plainly: Inhibition of JNK1 at 10 uM.
Assay [4] addresses T3, Interleukin-1 receptor-associated kinase 4 (Homo sapiens, UniProt Q9NWZ3).
T3 sequence (Q9NWZ3 whole entry): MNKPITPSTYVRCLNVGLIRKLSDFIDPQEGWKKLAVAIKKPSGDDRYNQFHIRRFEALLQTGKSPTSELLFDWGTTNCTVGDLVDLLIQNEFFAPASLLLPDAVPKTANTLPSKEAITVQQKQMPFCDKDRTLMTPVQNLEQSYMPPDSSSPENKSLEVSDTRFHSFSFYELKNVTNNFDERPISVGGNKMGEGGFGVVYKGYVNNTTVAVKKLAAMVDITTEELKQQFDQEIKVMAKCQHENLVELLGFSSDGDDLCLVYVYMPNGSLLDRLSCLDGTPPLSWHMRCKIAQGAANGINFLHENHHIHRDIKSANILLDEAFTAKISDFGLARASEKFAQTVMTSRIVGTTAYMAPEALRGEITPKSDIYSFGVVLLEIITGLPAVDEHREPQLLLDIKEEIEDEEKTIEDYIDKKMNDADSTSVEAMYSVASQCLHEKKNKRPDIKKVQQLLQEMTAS
Put plainly: Inhibition of IRAK4.

Assay [5] addresses T4, Interleukin-1 receptor-associated kinase 4 (Homo sapiens) (UniProt Q9NWZ3).
T4 sequence (whole entry): T3 sequence (Q9NWZ3 whole entry)
Nature of the assay: Inhibition of IRAK4 at 10 uM.

Assay [6] deals with T1, Mitogen-activated protein kinase 9. Nature of the assay: Inhibition of JNK2.
Target sequence in this assay (P45984 whole entry): as the sequence (P45984 whole entry, looked up) above
Assay [7] has as its target T2, Mitogen-activated protein kinase 8. Nature of the assay: Inhibition of JNK1.

T2 sequence (P45983 whole entry): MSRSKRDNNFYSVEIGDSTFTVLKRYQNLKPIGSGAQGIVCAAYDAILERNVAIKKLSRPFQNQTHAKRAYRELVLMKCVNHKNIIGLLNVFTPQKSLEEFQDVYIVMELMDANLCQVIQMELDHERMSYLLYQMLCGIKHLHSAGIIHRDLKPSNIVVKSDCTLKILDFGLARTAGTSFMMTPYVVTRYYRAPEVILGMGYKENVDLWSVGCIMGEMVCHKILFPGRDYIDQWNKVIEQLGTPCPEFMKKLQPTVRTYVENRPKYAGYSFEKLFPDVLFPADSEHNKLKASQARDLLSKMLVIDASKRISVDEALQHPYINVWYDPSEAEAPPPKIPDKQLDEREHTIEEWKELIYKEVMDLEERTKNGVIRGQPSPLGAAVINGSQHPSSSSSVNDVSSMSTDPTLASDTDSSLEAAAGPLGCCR
Mitogen-activated protein kinase 10, sequence (P53779 whole entry): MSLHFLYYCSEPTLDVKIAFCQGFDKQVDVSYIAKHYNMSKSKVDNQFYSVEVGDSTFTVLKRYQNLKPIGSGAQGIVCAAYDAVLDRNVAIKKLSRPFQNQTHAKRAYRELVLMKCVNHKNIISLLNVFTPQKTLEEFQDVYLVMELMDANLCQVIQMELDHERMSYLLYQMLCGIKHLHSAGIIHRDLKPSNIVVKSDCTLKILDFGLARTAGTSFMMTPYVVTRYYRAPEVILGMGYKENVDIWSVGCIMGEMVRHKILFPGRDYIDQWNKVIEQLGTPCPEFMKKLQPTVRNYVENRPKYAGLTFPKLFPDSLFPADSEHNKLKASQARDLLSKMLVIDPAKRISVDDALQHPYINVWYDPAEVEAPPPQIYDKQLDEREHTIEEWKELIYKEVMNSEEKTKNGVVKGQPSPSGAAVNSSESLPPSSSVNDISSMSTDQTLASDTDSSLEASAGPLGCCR

What is called IC50 is the point on the concentration scale where inhibition reaches its midpoint. A higher IC50 goes with a need for much substance. With `CNC(=O)CN1CCC(Nc2nccc(-c3cnc4ccccn34)n2)CC1`, 270 nM corresponded to half-maximal inhibition in assay [1] (IC50).

For orientation: inhibition means how much of the control response was suppressed. Higher therefore signals strong suppression. In the case of `c1cc(NC2CCNCC2)nc(-c2cncc3ccccc23)c1`, the inhibition in assay [2] stood at 0%; in assay [3], 5%. The molecule also displayed an IC50 in assay [4] of 1930 nM.

For `c1ccn2c(-c3ccnc(NC4CCNCC4)c3)cnc2c1`, the inhibition in assay [2] was determined as 0%; in assay [5] it was 31%; in assay [3] it was 0%.

`c1cc(NC2CCNCC2)nc(-c2n[nH]c3ccccc23)c1`: the 50% inhibitory concentration (IC50) worked out at 1760 nM in assay [6], 2080 nM in assay [7] and 456 nM in assay [4].

Regarding `c1cc(NC2CCNCC2)nc(-c2cnc3ccccn23)c1`, the values for the inhibition in assay [2] and in assay [3] were 15% and 39%, respectively. Further, it took 35 nM to reach half-maximal inhibition in assay [4] (IC50).

For the molecule `c1cc(NC2CCNCC2)nc(-n2cnc3ccccc32)c1`, the inhibition in assay [2] and in assay [3] was 0% throughout. This molecule had an IC50 in assay [4] of 70 nM.

Turning to `CN(c1nccc(-c2cnc3ccccn23)n1)C1CCCCC1`, the IC50 in assay [1] came out at 3 nM; in assay [4], 400 nM.

Take `c1ccn2c(-c3ccnc(NC4CCNCC4)n3)cnc2c1`: the inhibition in assay [2] stood at 59%. Further, the IC50 in assay [7] was found to be 3800 nM; in assay [4], 216 nM.

On to `c1ccn2c(-c3ccnc(OC4CCNCC4)n3)cnc2c1`, for which the inhibition in assay [2] was 30%; in assay [3], 24%. In assay [4], this molecule registered an IC50 of 1190 nM.

As for `CN(c1nccc(-c2cnc3ccccn23)n1)C1CCNCC1`, the values for the inhibition in assay [2] and in assay [3] were 35% and 33%, respectively. For the same molecule, in assay [4], the IC50 was determined as 200 nM.

As to `c1cc(NC2CCNCC2)nc(-n2ccc3ccccc32)c1`, the inhibition in assay [2] is 0%; in assay [5] it was 30%; in assay [3] it was 0%.

The values above are taken from ChEMBL document CHEMBL1150395, “IRAK-4 inhibitors. Part II: a structure-based assessment of imidazo[1,2-a]pyridine binding” (Bioorg Med Chem Lett, 2008).
